Laboratory results as given in patent publication US11465980B2, “6-membered aza-heterocyclic containing delta-opioid receptor modulating compounds, methods of using and making the same” (Trevena, Inc., priority 2015, dated 2022).

Tests used:
[1] = tested on: adult male C57 mice; test: Tail suspension test (TST); assay type: in vivo, mouse; conditions: Mus musculus; route sc, po; p < 0.05 compared to vehicle-treated mice; read-out: Active TST Dose
Protocol: The experiments were performed using adult male C57 mice (6-10 weeks of age, 20-30 g, Hilltop Lab, PA). The mice were housed in standard rodent cages with stainless steel mesh wire bar lids in groups of 4 with controlled temperature and light cycle (6:00 a.m.-6:00 p.m.). Animals were given free access to food (Harlan Teklad Global 18% protein (Madison, Wis.)) and water during a minimum 2-day habituation period to the laboratory. Animals that were used in the study were handled, housed, and sacrificed (using compressed CO2) in accord with the current NIH guidelines regarding the use and care of laboratory animals, and all applicable local, state, and federal regulations and guidelines. Animals are identified by cage number, and by markings applied to the proximal tip of the tail using a permanent marker. Group sizes (n=8, and therefore 30-50 animals per study) provide reliable estimates of treatment effects, and this species and strain of mouse has been recognized as appropriate for pharmacology studies.
To measure efficacy of the compounds the compounds were tested using a tail suspension test. The tail suspension test is a behavioral test used to evaluate the efficacy of antidepressant drugs in rodents. In the TST, mice (n=8/group) were suspended by the tail with tape approximately 30-50 cm above the lab bench. Mice are positioned such that the base of their tail is perpendicular to the lab bench. Each mouse is given 1 trial that last 6 minutes. The total duration of immobility is calculated as the percentage of time that the mouse is immobile. The duration of immobility is the main parameter measured. This is calculated from the cumulated time during which the animals is absent of initiated movements including passive swaying. When antidepressant drugs are administered, immobility is decreased by a variety of classes of antidepressant drugs. One or more of the compounds show antidepressant activity.

[2] = tested on: mouse; test: Tactile allodynia produced by intraplantar Freund's Complete Adjuvant, von Frey (mouse); assay type: in vivo; conditions: route po, p < 0.05 vs vehicle
Protocol: (§1) Animals were acclimated to the vivarium for at least 48 hr prior to behavioral testing. Inflammation was induced for both rodent species with the administration of an intraplantar (subcutaneous injection into the plantar surface of the hind paw, i.pl.) injection of 0.10 ml Freund's Complete Adjuvant (FCA).
For mouse studies, the experiments were conducted 48 hours after FCA administration. Tactile allodynia was measured using a series of von Frey monofilaments. These filaments are bendable, plastic and intended to poke, not penetrate, the skin. Animals were placed in a Plexiglas chamber (approximately 10 cm×20 cm×25 cm) and allowed to habituate for 5-10 minutes. The chamber was positioned on top of a mesh screen so that von Frey monofilaments can be presented to the plantar surface of the hind paw that is inflamed. The measurement of tactile sensitivity for the injected hind paw is obtained using the up/down method (LaBuda and Little, 2005, J Neurosci. Methods, 144, 175) with […]. Each trial will start with a von Frey force of 0.6 grams delivered to the hind paw for approximately 1-2 seconds. If there was no withdrawal response, the next higher force was be delivered. If there was a response, the next lower force was delivered. This procedure was performed until no response was made at the highest force (2 grams) or until four stimuli are administered following the initial response. The 50% paw withdrawal threshold for the hind paw was be calculated using the following formula: [Xth]log=[vFi]log+ky where [vFr] is the force of the last von Frey used, k is the average interval (in log units) between the von Frey monofilaments, and y is a value that depends upon the pattern of withdrawal responses (Dixon, Annual Review Pharmacol Toxicol, 1980, 20, 441).

[3] = tested on: rat; test: Mechanical allodynia after Freund's Complete Adjuvant, Randall-Selitto (rat); assay type: in vivo; conditions: route sc, p < 0.05 vs vehicle
Protocol: as §1
For rat studies, the experiments were conducted 24 hours after CFA administration. Rats are tested for mechanical allodynia in a Randall-Selitto apparatus. The inflamed paw is put on a pedestal and a pointed force of increasing intensity (0 to 250 grams) is applied to the paw. When the animal struggles to withdraw from the force the test is stopped and the force to induce that struggle is recorded. Data may be presented as mean grams of force to withdrawal or a percentage of the maximum possible effect.

[4] = tested on: rat; test: Tactile allodynia produced by nitroglycerin (migraine model, rat); assay type: in vivo; conditions: route sc, nitroglycerin 10 mg/kg ip, p < 0.05 vs vehicle
[5] = tested on: mouse; test: Tactile allodynia produced by nitroglycerin (migraine model, mouse); assay type: in vivo; conditions: route sc, nitroglycerin 10 mg/kg ip, p < 0.05 vs vehicle, read-out: Active Migraine Doses
Protocol: Compounds were tested for efficacy in rodent models of nitroglycerine induced migraine. In this model both rats and mice can be induced to have a behavioral response consistent with the progression of a migraine attack by the intraperitoneal injection of nitroglycerin. In this test mice or rats (n=8/group) are given an intraperitoneal injection of nitroglycerin at 10 mg/kg. After 90 minutes the animals are subcutaneously dosed with test compound. A measurement of mechanical allodynia will be obtained using the up/down method with seven von Frey monofilaments. There is a specific series used for rat and mouse. Each monofilament is delivered to the hind paw for approximately 1-2 seconds. If there is a response, the next lower force will be delivered. This procedure will be performed until no response was made at the highest force or until four stimuli are administered following the initial response. The 50% paw withdrawal threshold for the hind paw will be calculated using the following formula: [Xth]log=[vFr]log+ky where [vFr] is the force of the last von Frey used, k is the average interval (in log units) between the von Frey monofilaments, and y is a value that depends upon the pattern of withdrawal responses. Testing for tactile sensitivity will be performed and a withdrawal value will be assigned as the tactile sensitivity (expressed in grams of force required to elicit a response) for the injected paw for each animal. Data is presented as the mean grams required to produce a hind paw withdrawal from the von Frey stimulus. […] Compounds found to be effective in this model of migraine at the doses indicated, although other doses may also be active. Other compounds described herein were not necessarily tested, but are expected to be able have some level of efficacy.

[6] = tested on: rat; test: Hemilesioned rat 6-OHDA model (bar, drag, rotarod tests); assay type: in vivo; conditions: route sc, p < 0.05 vs vehicle
Protocol: Compounds were tested for efficacy in reversing akinesia and bradykinesia in two well accepted rodent Parkinson's disease (PD) models; the haloperidol-induced rat catalepsy and 6-OHDA rat hemiparkinson lesion models.
In the hemilesioned rat 6-OHDA model, the effect of compound on the akinetic response to lesioning of the contralateral forepaw in the bar test and stepping activity as measured by the drag test were determined. […] This assay examines efficacy for reversing PD motor symptoms (i.e. akinesia/bradykinesia and gait abilities). The behavioral readouts will include immobility time in the bar test (akinesia), number of steps in the drag test (akinesia/bradykinesia) and time spent on rod in the rotarod test (overall gait ability, gross motor behavior). Compounds were administered subcutaneously and efficacy was evaluated between 30 and 90 min post dose.

In the case of `COc1ccc([C@@H]2CCN(CCc3ccccc3)[C@H](C)[C@H]2COc2ccc3c(c2)C(=O)NC3)cc1` [Compound B0707, (−)-6-{[(trans, trans)-4-(4-methoxyphenyl)-2-methyl-1-(2-phenylethy)piperidin-3-yl]methoxy}-2,3-dihydro-1H-isoindol-1-one], the minimal effective dose [1] is reported as ≤ 30 mg/kg, the “Active CFA Dose” value [2] is reported as ≤30 mg/kg and the “Active CFA Dose” value [3] is reported as ≤10 mg/kg. For the same compound, the “Active Migraine Doses” value [4] was ≤10 mg/kg, the minimal effective dose [5] was ≤ 10 mg/kg and the “Active Dose (hemilesioned rat 6-OHDA model)” value [6] was ≤30 mg/kg.
